Key:
Peripheral blood T cells = experiment: S phase entry of mitogen-stimulated peripheral blood T cells (flow cytometry); assay type: cell-based, human; conditions: PHA; for cell death: evaluated at 40 h, data not shown
Procedure: C and D. LAC blocks the S phase entry of the mitogen-stimulated peripheral blood T cells Peripheral blood T cells were stimulated with PHA (2 μ/ml) in the absence or presence of LAC (10 μM, added at 0 h, 16 h, 24 h, or 40 h, as indicated in the bottom of the panels). For the flow cytometry analysis of the cell cycle progress, the cells were harvested at 0 h, 1 6 h, 40 h and 64 h as indicated on the top of the panels (FIG. 6C). For ^3H-thymidine uptake, the triplicated cell samples were pulsed at 48 h and harvested at 64 h (FIG. 6D).
T cells from PBMC were at Go when isolated. After 16 h stimulation with PHA, they remained before the S phase (FIG. 6C). At 40 h, about 20% of the cells were in the S and G2/M phases. The peak of ^3H-thymidine uptake according to a 16 h pulse was between 48 h and 64 h (data not shown), although at 64 h, the cells in the S and G2/M phases were still about 20% (FIG. 6C). The lack of an increase in percentage of cells in the S and G2/M phases at 64 h compared with that at 40 h was likely due to the exit of the cells from the S and G2/M phase. It is to be noted that the cycling T cells in this system never reaches 100%, because about 15% of the cells were non T cells, and an additional 20% were non responsive T cells. Taken the cell proliferation and cell cycle analysis together, the G1/S boundary of the cycling T cells should be between about 35 h and 48 h after the PHA stimulation. The boundary was broad because the synchronization was not ideal.
In this model, the role of the proteasome in the S phase entry was examined. […] We have noticed that when the cell viability was evaluated at 40 h, there was an increase of cell death comparing the 16 h addition of LAC with the 0 h addition (about 25% vs about 17%, data not shown). The increased cell death was also reflected in the cells with <2N DNA in the 40 h histogram. However, such a viability was still reasonable and would not invalidate our conclusion. […] The discrepancy could be explained by the fact that the 20% cells were already in the S and G2/M phases at 40 h when LAC was added. LAC prevented additional cells from entering into the S phase, therefore the lack ^3H-thymidine uptake.
Flow cytometry was employed for cell cycle analysis for T cells and Jurkat cells as described before (Shan et al., 1994, supra) using propidium iodide staining.

p21^Cip1 = experiment: Immunoblotting of p21Cip1 level in T cells; assay type: cell-based, human; conditions: PHA; LAC 10 μM added once at the beginning
Procedure: (§1) Tonsillar T cells were stimulated with PHA (2 μg/ml) for 16 h, 40 or 64 h in the absence or presence of LAC (10 μM). For the 16 h and 40 h culture, LAC was added once at 0 h. For the 64 h culture, LAC was added once at 40 h. The cell lysates were resolved in 10% SDS-PAGE, and blotted onto PVDF membranes. The membranes were hybridized with rabbit anti-p27^Kip1 antisera (FIG. 9A) or with anti-p21^Cip1 antisera (FIG. 9B) followed by ^125-protein A. The experiments were performed three times, and similar results were obtained. Representative data is shown.
(§2) In addition to the cyclin levels, the CDK activities are also controlled by several low molecular weight inhibitors. We have examined in this study the effect of the proteasome on the CDK inhibitors p27^Kip1 (Hall et al., 1995, supra) and p21^Cip1 (el-Deiry et al., 1993, Cell 75:817). […] This is in agreement with previous reports (Hengst et al., 1996, Science 271:1861; Nourse et al., 1994, Nature 372:570). […] The blockage was less obvious when assayed at 40 h, probably because the gradual loss of LAC activity during the 40 h culture. […]
(§3) Immunoblotting was employed to evaluate the levels of Cyclin E, cyclin A, p21^Cip1 and p27^Kip1. […] The cleared lysates were quantitated for protein concentrations. […] The signals on the membrane were detected by [^125I]-protein A followed by autoradiography.

p27^Kip1 = experiment: Immunoblotting of p27Kip1 level in T cells; assay type: cell-based, human; conditions: PHA, LAC 10 μM added once at 0 h
Procedure: as §1, §2, §3

Jurkat cells = experiment: Electron microscopy of Jurkat cells; assay type: cell-based; conditions: LAC 6 μM; 24 h
Procedure: E and F: Morphology of Jurkat cell treated with LAC. Jurkat cells were cultured in the absence (E) or presence (F) of LAC (6 μM) for 24 h and were evaluated with EM. Arrows indicate condensed nuclei.
Electron microscopy was also employed to examine the mode of cell death induced by LAC. The resting T cells (cells cultured in medium, FIG. 3A), activated T cells (40 h after PHA activation, FIG. 3C), and Jurkat cells (FIG. 3E) were all healthy looking. […] The resting T cells treated with LAC (10 μM) for 24 h were still healthy (FIG. 3B).
T cells and Jurkat cells were examined by electron microscopy as described by Tsao and Duguid (Tsao et al., 1987, Exp. Cell Res. 168:365).

20S proteasome = 20S proteasome (Rattus norvegicus, UniProt P28075); experiment: 20S proteasome chymotrypsin-like activity, positive control for LAC; assay type: biochemical
Procedure: (§4) Human PBMC were cultured in the absence or presence of 2 μg/ml PHA or 10 nM RAPA for 16 h-70 h as indicated. The cells were then harvested, and the chymotrypsin-like activity of whole cells lysates was assayed in the absence or presence of 20 μM proteasome inhibitor LAC. The data are presented as arbitrary units of fluorescence intensity per 20 μg lysate protein. The experiments were repeated three times and a representative one is shown. Samples are in duplicate and the mean±SD is shown. (A) Total chymotrypsin-like activity in the lysate of PBMC. (B) Lactacystin-inhibitable chymotrypsin-like activity in the lysate of 70 h PBMC. […] LAC was always added to the lysates during the proteinase assay 15 min before the addition of the substrate. The solid bars represent the activity in the presence of LAC. The net proteasome activities are calculated as the total activity minus the remaining activity after the LAC addition.
PBMC were cultured with or without PHA (2 μg/ml) and RAPA (10 nM). After 16 h-70 h, the cells were harvested and sonicated in 300 μl PBS on ice for 40 sec. Twenty micrograms of protein per sample from the cleared lysates were supplemented to 100 μl with 0.1 M Tris buffer (pH 8.2). […] The samples were then diluted to 2 ml with 0.1 M Tris pH8.2, and measured for their fluorescent intensity by a PTI fluorometer (Photo Technology International, South Brunswick, N.J.). […]

[1] = test system: chymotrypsin-like activity in the lysate of PBMC; experiment: LAC-inhibitable chymotrypsin-like activity in PBMC lysates; assay type: biochemical, human; conditions: 10 μM LAC
Procedure: as §4
PBMC were cultured with or without PHA (2 μg/ml) and RAPA (10 nM). After 16 h-70 h, the cells were harvested and sonicated in 300 μl PBS on ice for 40 sec. Twenty micrograms of protein per sample from the cleared lysates were supplemented to 100 μl with 0.1 M Tris buffer (pH 8.2). A proteasome-specific inhibitor lactacystin (Omura et al., 1991, supra; Fentenay et al., 1995, supra) was added at a final concentration of 10 nM in some samples as indicated. The samples were incubated on ice for 15 min, and fluorogenic chymotrypsin substrate sLLVY-MCA was then added at a final concentration of 10 nM. The 20S proteasome, which was prepared as previously described (Friguet et al, 1994, J. Biol. Chem. 269:21639), was used as a positive control in place of cell lysates. The samples were incubated at 37° C. for 15 min and the reaction was terminated by adding 4 μl 2.5 M HCl. The samples were then diluted to 2 ml with 0.1 M Tris pH8.2, and measured for their fluorescent intensity by a PTI fluorometer (Photo Technology International, South Brunswick, N.J.). The excitation wavelength was 380 nm, and the emission wavelength 440 mn.

Bcl-xL = experiment: Immunoblotting of Bcl-xL in Bcl-xL transfected Namalwa cells; assay type: cell-based, human; conditions: lactacystin 6 μM; 6 h
Procedure: Jurkat cells, wild type Namalwa cells and Bcl-xL transfected Namalwa cells were treated with medium (lanes 1), staurosporine (0.3 μM, lanes 2) and lactacystin (6 μM, lanes 3) for 6 H. The proteins from the mitochondrial fraction of these cells were analyzed by immunoblotting and the amount of Bik, Bcl-xL, Bax, and Bak evaluated. The same membranes were used sequentially and probed with different antibodies against these factors. A nonspecific band recognized by a monoclonal antibody against cytochrome […] (COX) was used as control for even sample loading in the lanes.

CC(=O)N[C@@H](CSC(=O)[C@]1([C@@H](O)C(C)C)NC(=O)[C@H](C)[C@@H]1O)C(=O)O [LAC, lactacystin]
S phase entry (Peripheral blood T cells; LAC 10 μM added once at 16 h, examined at 40 h): totally block the S phase entry
cell death (Peripheral blood T cells; LAC added at 0 h): about 17%
cell death (Peripheral blood T cells; LAC added at 16 h): about 25%
percentage of the population in the S and G2/M phase (Peripheral blood T cells; LAC added at 40 h or not, at 64 h): no difference
upregulation of p21Cip1 in the G1 phase (p21^Cip1): strongly suppressed the upregulation
decrease (degradation) of p27Kip1 (p27^Kip1; assayed at 16 h): significantly blocked the decrease
blockage of p27Kip1 decrease (p27^Kip1; assayed at 40 h): less obvious
nuclear condensation by electron microscopy (Jurkat cells): frequently observed
inhibition at 10 µM (20S proteasome; LAC at 10 μM): 90%
inhibitory effect on the 20S proteasome activity (20S proteasome; LAC increased to 20 μM): did not further increase the inhibitory effect
inhibition of total chymotrypsin-like activity in the lysate ([1]; 70 h lysate from PHA plus RAPA-treated PBMC): 86.7%
inhibition of total chymotrypsin-like activity in the lysate ([1]; 70 h lysate from PHA-treated PBMC): 76.7%
inhibition of total chymotrypsin-like activity in the lysate ([1]; 70 h lysate from medium-treated PBMC): 73.4%
Bcl-xL level in transfected Namalwa cells (Bcl-xL): accumulation of Bcl-xL
